Like-named read-outs stand apart in the source and are kept apart here. Where only a bound is given, the exact number is not on record here.

One test concerns the target T1, FPR1 (Homo sapiens, UniProt P21462).
T1 construct: expressed in transfected cells; host or cells: HEK-Gqi5 (HEK cells with chimeric G protein Gqi5)
T1 sequence (P21462 1-350): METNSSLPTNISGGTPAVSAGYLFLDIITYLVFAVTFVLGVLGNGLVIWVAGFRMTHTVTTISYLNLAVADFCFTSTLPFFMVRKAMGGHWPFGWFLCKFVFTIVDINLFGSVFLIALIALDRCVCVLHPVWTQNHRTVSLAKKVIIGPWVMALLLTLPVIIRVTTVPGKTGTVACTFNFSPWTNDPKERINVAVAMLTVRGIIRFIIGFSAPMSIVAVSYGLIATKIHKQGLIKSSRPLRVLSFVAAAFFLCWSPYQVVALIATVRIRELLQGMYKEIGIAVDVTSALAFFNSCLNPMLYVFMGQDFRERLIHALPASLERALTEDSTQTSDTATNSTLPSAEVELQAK
Put plainly: compound-induced calcium activity on FLIPR Tetra in HEK-Gqi5 cells stable expressing FPR1. Format: cell-based. Set-up: FPR1 (rel. eff.): scale not given here. As to conditions: for FPR1 (rel. eff.): relative efficacy. Here is the method: (§1) CHO-Gal6 cells stably expressing FPRL1 were cultured in (F12, 10% FBS, 1% PSA, 400 μg/ml geneticin and 50 μg/ml hygromycin) and HEK-Gqi5 cells stable expressing FPR1 were cultured in (DMEM high glucose, 10% FBS, 1% PSA, 400 μg/ml geneticin and 50 μg/ml hygromycin). In general, the day before the experiment, 18,000 cells/well were plated in a 384-well clear bottom poly-d-lysine coated plate. The following day the screening compound-induced calcium activity was assayed on the FLIPR^Tetra. The drug plates were prepared in 384-well microplates using the EP3 and the MultiPROBE robotic liquid handling systems. Compounds were tested at concentrations ranging from 0.61 to 10,000 nM. Results are expressed as EC50 (nM) and efficacy values.

In another test the target is T2, FPRL1 (Homo sapiens, UniProt P25090).
T2 construct: expressed in transfected cells; host or cells: CHO-Gal6 (CHO cells with G alpha 16)
T2 sequence (P25090 1-351): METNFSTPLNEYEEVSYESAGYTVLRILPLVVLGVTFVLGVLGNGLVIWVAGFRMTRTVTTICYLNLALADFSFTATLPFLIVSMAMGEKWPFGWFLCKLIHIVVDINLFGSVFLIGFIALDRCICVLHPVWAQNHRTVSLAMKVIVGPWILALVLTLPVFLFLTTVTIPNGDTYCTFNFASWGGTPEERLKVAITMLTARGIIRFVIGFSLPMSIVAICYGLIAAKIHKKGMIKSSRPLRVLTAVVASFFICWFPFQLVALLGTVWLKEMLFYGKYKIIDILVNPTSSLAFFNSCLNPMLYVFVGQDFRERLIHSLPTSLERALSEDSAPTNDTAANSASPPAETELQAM
The experiment in a line: compound-induced calcium activity on FLIPR Tetra in CHO-Gal6 cells stably expressing FPRL1. Format: cell-based. As to conditions: for FPRL1 (rel. eff.): relative efficacy. Here is the method: as §1

[1] abbreviates: calcium, FLIPR Tetra, tested 0.61 to 10,000 nM, read-out: FPRL1 EC50.
The mark [2] stands for this setting: class symbol NA, read-out: FPR1 EC50 (NA = Not Active).

Turning to `CC(C)=C1[C@H]2C=C[C@@H]1[C@@H](C(=O)O)[C@H]2C(=O)Nc1ccc(Br)cc1` (racemic) [Compound 21, (+/−)-(1S,4R,5R,6S)-6-(4-Bromophenylcarbamoyl)[bicyclo[2.2.1]hept[2]ene-7-propan-2-ylidene]-5-carboxylic Acid], the “FPR1 (rel. eff.)” value on FPR1 (calcium, FLIPR Tetra) is reported as 50. Also, the concentration giving a half-maximal response (EC50) on FPRL1 (setting [1]) was 0.461 µM. The “FPRL1 (rel. eff.)” value on FPRL1 (calcium, FLIPR Tetra) was determined as 0.77.
Consider `CC1(C)[C@@H]2CC[C@H]1[C@@H](C(=O)Nc1ccc(Cl)cc1)[C@H]2C(=O)O` (racemic) [Compound 14, (+/−)-(1R,2S,3R,4S)-3-(4-Chlorophenylcarbamoyl)-7,7-dimethylbicyclo[2.2.1]heptane-2-carboxylic Acid], for which the EC50 at FPR1 (setting [2]) was above 10 µM; at FPRL1 (setting [1]), 0.036 µM. Also, the “FPRL1 (rel. eff.)” value at FPRL1 (calcium, FLIPR Tetra) was found to be 0.86.
Take `CC(=O)c1ccc(NC(=O)C2C(C(=O)O)C3C=CC2C32CC2)cc1` (racemic) [Compound 32, (+/−)-(1R,4S,5R,6S)-5-((4-Acetylphenyl)carbamoyl)spiro[bicyclo[2.2.1]hept[2]ene-7,1′-cyclopropane]-6-carboxylic Acid]: the values for the concentration for a half-maximal effect (EC50) at FPR1 (setting [2]) and at FPRL1 (setting [1]) were above 10 µM and 0.277 µM, respectively. The “FPRL1 (rel. eff.)” value at FPRL1 (calcium, FLIPR Tetra) worked out at 0.96.
On to `O=C(NCCO)[C@@H]1[C@H](C(=O)Nc2ccc(Br)cc2)[C@@H]2CC[C@H]1C21CC1` (racemic) [Compound 82, (+/−)-(1S,2R,3S,4R)—N^2-(4-Bromophenyl)-N^3-[2-hydroxyethyl]spiro[bicyclo[2.2.1]heptane-7,1′-cyclopropane]-2,3-dicarboxamide], for which the EC50 at FPR1 (setting [2]) was above 10 µM; on FPRL1 (setting [1]) it was 0.0088 µM. Moreover, on FPRL1 (calcium, FLIPR Tetra), the “FPRL1 (rel. eff.)” value is on record as 0.86.
For `CSc1ccc(NC(=O)[C@H]2[C@@H](C(N)=O)[C@H]3CC[C@@H]2C32CC2)cc1` (racemic) [Compound 53, (+/−)-(1S,2R,3S,4R)—N2-(4-(Methylthio)phenyl)spiro[bicyclo[2.2.1]heptane-7,1′-cyclopropane]-2,3-dicarboxamide], the EC50 was above 10 µM on FPR1 (setting [2]) and 0.015 µM on FPRL1 (setting [1]). For the same molecule, the “FPRL1 (rel. eff.)” value on FPRL1 (calcium, FLIPR Tetra) is 0.86.
Regarding `CC1(C)[C@@H]2CC[C@H]1[C@@H](C(=O)Nc1ccc(I)cc1)[C@H]2C(N)=O` (racemic) [Compound 55, (+/−)-(1S,2R,3S,4R)—N2-(4-Iodophenyl)-7,7-dimethylbicyclo[2.2.1]heptane-2,3-dicarboxamide], the EC50 at FPR1 (setting [2]) was above 10 µM. On FPRL1 (calcium, FLIPR Tetra), the “FPRL1 (rel. eff.)” value turned out to be 0.81.
Consider `CSc1ccc(NC(=O)[C@H]2[C@@H](C(N)=O)[C@H]3CC[C@@H]2C3(C)C)cc1` (racemic) [Compound 64, (+/−)-(1S,2R,3S,4R)-7,7-Dimethyl-N^2-(4-(methylthio)phenyl)bicyclo[2.2.1]heptane-2,3-dicarboxamide], for which the EC50 at FPR1 (setting [2]) was above 10 µM; on FPRL1 (setting [1]), 0.0172 µM. In addition, the “FPRL1 (rel. eff.)” value at FPRL1 (calcium, FLIPR Tetra) worked out at 0.9.
The like results for `O=C(O)C1C(C(=O)Nc2ccc(Cl)c(Cl)c2)C2C=CC1C21CC1` (racemic) [Compound 28, (+/−)-(1S,4R,5S,6R)-6-((3,4-Dichlorophenyl)carbamoyl)spiro[bicyclo[2.2.1]hept[2]-ene-7,1′-cyclopropane]-5-carboxylic Acid] were, in that order, above 10 µM, 0.616 µM and 0.70.
The corresponding values for `O=C(O)C1C(C(=O)Nc2ccc(Br)cc2)C2CCC1C21CC1` (racemic) [Compound 10A] are above 10 µM, 0.278 µM and 0.82.
With `CC1(C)[C@@H]2CC[C@H]1[C@@H](C(=O)Nc1ccc(Br)cc1)[C@H]2C(=O)O` (racemic) [Compound 13, (+/−)-(1R,2S,3R,4S)-3-(4-Bromophenylcarbamoyl)-7,7-dimethylbicyclo[2.2.1]heptane-2-carboxylic Acid], the EC50 on FPR1 (calcium, FLIPR Tetra, tested 0.61 to 10,000 nM, read-out: FPR1 EC50) turned out to be 0.639 µM. Besides, on FPR1 (calcium, FLIPR Tetra), the “FPR1 (rel. eff.)” value stood at 0.33. Further, the “FPRL1 (rel. eff.)” value at FPRL1 (calcium, FLIPR Tetra) is 0.85.
`CSc1ccc(NC(=O)C2C(C(N)=O)C3C=CC2C32CC2)cc1` (racemic) [Compound 63, (+/−)-(1R,4S,5R,6S)—N^5-(4-(Methylthio)phenyl)spiro[bicyclo[2.2.1]hept[2]ene-7,1′-cyclopropane]-5,6-dicarboxamide]: the EC50 on FPR1 (setting [2]) was above 10 µM; on FPRL1 (setting [1]) it was 0.0966 µM. Besides, the “FPRL1 (rel. eff.)” value on FPRL1 (calcium, FLIPR Tetra) worked out at 0.9.
For `O=C(Nc1ccc(Br)cc1)[C@H]1[C@@H](CO)[C@H]2CC[C@@H]1C21CC1` (racemic) [Compound 59, (+/−)-(1S,2R,3S,4R)—N-(4-Bromophenyl)-3-(hydroxymethyl)spiro[bicyclo[2.2.1]-heptane-7,1′-cyclopropane]-2-carboxamide], the EC50 was above 10 µM at FPR1 (setting [2]) and above 10 µM at FPRL1 (in μM, read-out: FPRL1 EC50). Also, at FPRL1 (calcium, FLIPR Tetra), the “FPRL1 (rel. eff.)” value came to 0.76.
On to `O=C(O)C1C(C(=O)Nc2ccc(OC(F)(F)F)cc2)C2C=CC1C21CC1` (racemic) [Compound 34, (+/−)-(1S,4R,5S,6R)-6-β4-(Trifluoromethoxy)phenyl)carbamoyl)spiro[bicyclo-[2.2.1]hept[2]ene-7,1′-cyclopropane]-5-carboxylic Acid], for which the EC50 on FPR1 (setting [2]) is above 10 µM; at FPRL1 (setting [1]), 0.585 µM. Besides, at FPRL1 (calcium, FLIPR Tetra), the “FPRL1 (rel. eff.)” value is on record as 0.96.
`CC(=O)c1ccc(NC(=O)[C@H]2[C@@H](C(=O)O)[C@H]3CC[C@@H]2C32CC2)cc1` (racemic) [Compound 43, (+/−)-(1S,2R,3S,4R)-2-((4-Acetylphenyl)carbamoyl)spiro[bicyclo[2.2.1]heptane-7,1′-cyclopropane]-3-carboxylic Acid]: the EC50 on FPR1 (cells printed in μM, read-out: FPR1 EC50) was above 10 µM; on FPRL1 (setting [1]) it was 0.049 µM. On FPR1 (calcium, FLIPR Tetra), the “FPR1 (rel. eff.)” value was determined as 0.50. Also, the “FPRL1 (rel. eff.)” value on FPRL1 (calcium, FLIPR Tetra) is given as 0.71.
`CCc1ccc(NC(=O)[C@H]2[C@@H](C(=O)O)[C@H]3CC[C@@H]2C32CC2)cc1` (racemic) [Compound 40, (+/−)-(1R,2S,3R,4S)-3-((4-Ethylphenyl)carbamoyl)spiro[bicyclo[2.2.1]heptane-7,1′-cyclopropane]-2-carboxylic Acid]: the EC50 on FPR1 (setting [2]) was above 10 µM; at FPRL1 (setting [1]), 0.016 µM. Further, the “FPRL1 (rel. eff.)” value at FPRL1 (calcium, FLIPR Tetra) stood at 0.79.
The like results for `Cc1cc(Br)cc(C)c1NC(=O)[C@@H]1[C@H](C(=O)O)[C@@H]2CC[C@H]1C21CC1` (racemic) [Compound 73, (+/−)-(1R,2S,3R,4S)-2-((4-Bromo-2,6-dimethylphenyl)carbamoyl)spiro[bicyclo[2.2.1]-heptane-7,1′-cyclopropane]-3-carboxylic Acid] were, in that order, above 10 µM, 2.12 µM and 0.67.
The corresponding values for `CS(=O)(=O)c1ccc(NC(=O)[C@H]2[C@@H](C(=O)O)[C@H]3CC[C@@H]2C32CC2)cc1` [Compound 45, (1R,2S,3R,4S)-3-((4-(Methylsulfonyl)phenyl)carbamoyl)spiro[bicyclo[2.2.1]heptane-7,1′-cyclopropane]-2-carboxylic Acid] are above 10 µM, 0.598 µM and 0.86.
For `O=C1C2C(C(O)N1c1ccc(Br)cc1)C1CCC2C12CC2` (racemic) [Compound 91, (+/−)-(3aR,4S,7R,7aS)-2-(4-Bromophenyl)-1-hydroxyhexahydro-1H-spiro[4,7-methanoisoindole-8,1′-cyclopropane]-3(2H)-one], the EC50 was above 10 µM on FPR1 (setting [2]) and above 10 µM at FPRL1 (class symbol NA, read-out: FPRL1 EC50 (NA = Not Active)).
For `O=C(O)[C@@H]1[C@H](C(=O)Nc2ccc(OC(F)(F)F)cc2)[C@@H]2CC[C@H]1C21CC1` (racemic) [Compound 41, (+/−)-(1R,2S,3R,4S)-3-((4-(Trifluoromethoxy)phenyl)carbamoyl)spiro-[bicyclo[2.2.1]heptane-7,1′-cyclopropane]-2-carboxylic Acid], the EC50 on FPR1 (setting [2]) was above 10 µM; on FPRL1 (setting [1]) it was 0.123 µM. For the same molecule, the “FPRL1 (rel. eff.)” value at FPRL1 (calcium, FLIPR Tetra) is reported as 0.80.
The like results for “(+/−)-(1S,2R,3S,4R)—N^2-(4-Bromophenyl)-N^3-methoxyspiro[bicyclo[2.2.1]heptane-7,1′-cyclopropane]-2,3-dicarboxamide [Compound 80]” were, in that order, above 10 µM, 0.0559 µM and 0.97.

As a reminder, the EC50 is the concentration needed to bring the measured effect to its halfway point.

(Values after patent US8618163B2, “Derivatives of cycloalkyl- and cycloalkenyl-1,2-dicarboxylic acid compounds having formyl peptide receptor like-1 (FPRL-1) agonist or antagonist activity” (Allergan, Inc., priority 2010, dated 2013).)
